Test results as given in patent publication US6500819B2, “Bicyclolactam compounds, use thereof and intermediates for preparing thereof” (Taiho Pharmaceutical Company Limited, priority 1994, dated 2002).

Experiments:
[1] = tested on: Wistar rats; test: Anticonflict test (first part, Test Example 1); type: in vivo; conditions: for Frequency of water drinking behavior: 1 h before test, value relative to control = 100; for Anxiolytic effect in the anticonflict test (in words): oral, compounds at doses of 0.001 to 1.0 mg/kg
Protocol: Wistar rats (males weighing 140 to 160 g) were used for experiment in groups of 11 to 14.
The test compound, diazepam or buspirone was suspended in a 0.5 % sodiumn carboxymethyl cellulose solution, and the suspension was orally given to the animal in a volume of 5 mnl/kg one hour before the start of experiment.
With reference to a method described in “Process in Anxiolytics and Antidepresants,” ediled by Showa Ueki and Tatsuo Furukawa, Ishiyaku Shuppansha, 56-59 (1981) , the agents were tested using experimental boxes having a grid floor and a metal drinking tube in the floor. No water was supplied to the rats for 48 hours before the experiment. Upon lapse of first 24 hours, each group of rats were placed into the experimental box, permitted access to water for 30 seconds and caused to recognize the metal drinking tube. Upon lapse of further 24 hours with access to water prevented, the rats were placed into the box again and permitted access to water on condition that an electric current was passed between the metal drinking tube and the grid to give an electroshock for every 20 times of water drinking behavior to measure the frequency of water drinking behavior for 3 minutes.
The frequency is expessed by a value relative to the frequency of the control which is taken as 100.

[2] = Acute toxicity test (LD50), first part; type: in vivo; conditions: mouse, in vivo; oral, male ddY mice, observed for 3 days
[3] = tested on: ddY mice; test: Muscle relaxant effect (traction method), first part; conditions: mouse, in vivo, po, 300 mg/kg
Protocol: (§1) Muscle Relaxant Effect (Traction Method)
(§2) Compound 3, Compound 13, diazepam or buspirone was suspended in a 0.5 % sodium carboxymethyl cellulose solution, and the suspension was orally administered to 3- to 4-week-old male ddY mice (in groups of 5) in a volume of 10 ml/kg one hour before the start of experiment.
(§3) With reference to a method described in Japan. J. Pharmacol., 49. 337˜349(1989), the foreleg of the mouse was hung on a horizontal wire, having a diameter of 1.2 mm and fixed at a level of 30 cm, three times consecutively. […] Thus, ED5 0 was determined for evaluation. […] Diazepam and buspirone were 2.2 mg/kg and 427.8 mg/kg, respectively, in ED5 0.

[4] = in vivo; conditions: male, ddY, mouse, in vivo
Protocol: (§4) Effect On Central Nervous System Depressant
a. Pentobarbital Anesthetic Method
Compound 3, Compound 13, diazepam or buspirone was suspended in a 0.5 % sodium carboxymethyl cellulose solution, and the suspension was orally administered to 3- to 4-week-old male ddY mice (in groups of 5 to 10) in a volume of 10 ml/kg one hour before the start of experiment.
The test was conducted with reference to a method described in “Evaluation of Medicinal Efficacies (1), Pharmacological Test Method (1), Basic lectures on Development of Pharmaceuticals,” 144˜145(1971). More specifically, the group of mice were intraperitoneally given pentobarbital at a dose of 40 mg/kg and checked for sleeping time.

[5] = tested on: ddY mice; test: Effect on central nervous system depressant: ethanol enhancing method, first part; conditions: mouse, in vivo, po, 300 mg/kg
Protocol: as §4
b. Ethanol Enhancing Method
(§5) Compound 3, Compound 13, diazepam or buspirone was suspended in a 0.5 % sodium carboxymethyl cellulose solution, and the suspension was orally administered to 3- to 4-week-old male ddY mice (in groups of 6) in a volume of 10 ml/kg one hour before the start of experiment.
The test was conducted with reference to a method described in Japan. J. Pharmacol., 49, 337˜349(1989). More specifically, the group of mice were intraperitoneally given 25 % ethanol at a dose of 20 ml/kg and checked for the time interval between loss and recovery of the righting reflex.

[6] = tested on: ddY mice; test: Anticonvulsant effect (pentylenetetrazol-induced convulsion method), first part; type: in vivo; conditions: oral, dose of 300 mg/kg
Protocol: Anticonvulsant Effect (Pentylenetetrazol-Induced Convulsion Method)
as §5
The test was conducted with reference to a method described in “Evaluation of Medicinal Efficacies (1), Pharmacological Test Method (1), Basic lectures on Development of Pharmaceuticals,” 167˜172(1971).

[7] = tested on: Wistar rats; test: Elevated plus maze test; type: in vivo; conditions: for Ratio of entries into open arm: 1 h before test, relative to control = 100
Protocol: Wistar rats (males weighing 170 to 220 g) were used for experiment in groups of 4 to 9.
The test compound, diazepam or buspirone was suspended in a 0.5 %) sodium carboxymethyl cellulose solution, and the suspension was orally given to the animal in a volume of 5 ml/kg one hour before the start of experiment.
The test was conducted using an experimental device, Model BTA-2, Behavior Analysis System (product of Muromachi Kikai Co., Ltd.) with reference to a method described in Psychopharmacology, 99, 48˜53(1989). […] Each group of rats orally given the test drug were placed in the center square, and the behavior of the animals was recorded for 5 minutes using a behavior analyzer. The ratio of the number of entries into the open arm to the number of entries into all the arms was determined for evaluating the anxiolytic effect.
The ratio of entries into the open arm is expressed by a value relative to the ratio attained by the control which is taken as 100.

[8] = tested on: ddY mice; test: Sedative effect (spontaneous locomotor activity), first part; conditions: mouse, in vivo, po, 300 mg/kg
Protocol: Sedative Effect (Spontaneous Locomotor Activity)
as §2
The test was conducted with reference to a method described in “Evaluation of Medicinal Efficacies (1), Pharmacological Test Method (1), Basic Lectures on Development of Pharmaceuticals,” 50˜54(1971). More specifically, the group of mice were given the test drug and thereafter measured the amount of spontaneous locomotor activity for 10 minutes per mouse rising Animex MK-110 (product of Muromachi Kikai Co., Ltd.).

[9] = tested on: ddY mice; test: Acute toxicity test (number of deaths), second part; type: in vivo; conditions: 6 mice, observed for 3 days
[10] = tested on: ddY mice; test: Sedative effect (spontaneous locomotor activity), second part; conditions: mouse, in vivo, po, 300 mg/kg
Protocol: Sedative Effect (Spontaneous locomotor activity)
(§6) Compound 1′a-1, the comparison compound, diazepam or buspirone was suspended in a 0.5% sodium carboxymethyl cellulose solution, and the suspension was orally administered to 3- to 4-week-old male ddY mice (in groups of 5) in a volume of 10 ml/kg one hour before the start of experiment.
The test was conducted with reference to a method described in “Evaluation of Medicinal Efficacies (1), Pharmacological Test Method (I), Basic Lectures on Development of Pharmaceuticals,” 50˜54(1971). More specifically, the group of mice were given the test drug and thereafter measured the amount of spontaneous locomotor activity for 10 minutes per mouse using Animex MK-110 (Muromachi Kikai Co., Ltd.).

[11] = tested on: ddY mice; test: Anticonvulsant effect (pentylenetetrazol-induced convulsion method), second part; type: in vivo; conditions: oral, dose of 300 mg/kg
Protocol: Anticonvulsant Effect (Pentylenetetrazol-induced Convulsion Method)
Compound 1′a-1, the comparison compound, diazepam or j buspirone was suspended, in a 0.5% sodium carboxymethyl cellulose solution, and the suspension was orally administered to 3- to 4-week-old maple ddY mice (in groups of 6) in a volume of 10 ml/kg one hour before the start of experiment.
The test was conducted with reference to a method described in “Evaluation of Medicinal Efficacies (1), Pharmacological Test Method (I), Basic Lectures on Development of Pharmaceuticals,” 167˜172(1971).

[12] = tested on: ddY mice; test: Effect on central nervous system depressant (ethanol enhancing method), second part; conditions: mouse, in vivo, po, 300 mg/kg
Protocol: Effect on central nervous system depressant (Ethanol enhancing method)
Compound 1′a-1, the comparison compound, diazepam or buspirone was suspended in a 0.5% sodium carboxymethyl cellulose solution, and the suspension was orally administered to 3- to 4-week-old male ddY mice (in groups of 6) in a volume of 10 ml/kg one hour before the start of experiment.
The test was conducted with reference to a method described in Japan. J. Pharmacol., 49, 337˜349(1989). More specifically, the group of mice were intraperitoneally given 25% ethanol at a dose of 20 ml/kg and checked for the time interval between loss and recovery of the righting reflex.

[13] = tested on: ddY mice; test: Muscle relaxant effect (traction method), second part; conditions: mouse, in vivo, po, 300 mg/kg
Protocol: as §1, §6, §3

COc1ccc(C(=O)N2C(=O)CCC3CCCCC32)cc1 (stereo not drawn) [Compound 1, 2-(4-methoxybenzoyl)-2-azabicyclo[4.4.0)decane-3-one]
Frequency of water drinking behavior ([1]; dose 0.01 mg/kg oral): 138%
Frequency of water drinking behavior ([1]; dose 0.1 mg/kg oral): 140%
Frequency of water drinking behavior ([1]; dose 1.0 mg/kg oral): 122%
Anxiolytic effect in the anticonflict test (in words) [1]: increase in the frequency of water drinking behavior
LD50 at 3 days [2]: > 2000 mg/kg

COc1ccc(C(=O)N2C(=O)CCC3CCCC32)cc1 (stereo not drawn) [Compound 3, 2-(4-methoxybenzoyl)-2-azabicyclo[4.3.0]nonane-3-one]
Frequency of water drinking behavior ([1]; dose 0.001 mg/kg oral): 126%
Frequency of water drinking behavior ([1]; dose 0.01 mg/kg oral): 162%
Frequency of water drinking behavior ([1]; dose 0.1 mg/kg oral): 164%
Frequency of water drinking behavior ([1]; dose 1.0 mg/kg oral): 166%
Anxiolytic effect in the anticonflict test (in words) [1]: increase in the frequency of water drinking behavior
Muscle relaxant effect (in words) [3]: no muscle relaxant effect
ED50 at 1 h [4]: ≥ 300 mg/kg
Ethanol enhancing effect (in words) [5]: no ethanol enhancing effect
Anticonvulsant effect (in words) [6]: no anticonvtilsant effect
LD50 at 3 days [2]: > 2000 mg/kg
Ratio of entries into open arm ([7]; dose 0.001 oral): 195
Ratio of entries into open arm ([7]; dose 0.01 oral): 219
Ratio of entries into open arm ([7]; dose 0.1 oral): 248
Anxiolytic effect in the elevated plus maze (in words) ([7]; oral, dose of 0.001 mg/kg or greater): increase in the number of entries into the open arm
Sedative effect (in words) [8]: no sedative effect

COc1ccc(C(=O)N2C(=O)CC[C@H]3[C@H](O)CC[C@H]32)cc1 (racemic) [Compound 1′a-1, (1RS, 6RS, 7RS)-7-hydroxy-2-(4-methoxybenzoyl)-2-azabicyclo-[4.3.0]nonan-3-one]
Number of death ([9]; dose 2000 mg/kg oral): 0
Number of death ([9]; dose 3000 mg/kg oral): 2
Sedative effect (in words) [10]: no sedative effect
Anticonvulsant effect (in words) [11]: no anticonvulsant effect
Ethanol enhancing effect (in words) [12]: no ethanol enhancing effect
Muscle relaxant effect (in words) [13]: no muscle relaxant effect

COc1ccc(C(=O)N2C(=O)CC[C@@H]3[C@H]2CC[C@H]3OCc2ccccc2)cc1 (racemic) [Compound 4a-1, (1RS, 6RS, 7RS)-7-benzyloxy-2-(4-methoxybenzoyl)-2-azabicyclo[4.3.0]nonan-3-one]
melting point: 109.5 °C
